# Measured values taken from US7544664B2, “Sequences facilitating penetration of a substance of interest” (priority 2003, dated 2009).
# Read-outs that look alike come from different tables or passages of the source. Where a SMILES comes first, the peptide text is derived from it. The star is where a group is joined. X1 = C[C@@H]1[C@H](O)[C@@H](C)/C=C/C=C/C=C/C=C/C=C/C=C/C=C/[C@H](O[C@@H]2O[C@H](C)[C@@H](O)[C@H](NC(=O)CCCCCN3C(=O)CC(*)C3=O)[C@@H]2O)C[C@@H]2O[C@](O)(C[C@@H](O)C[C@@H](O)[C@H](O)CC[C@@H](O)C[C@@H](O)CC(=O)O[C@H]1C)C[C@H](O)[C@H]2C(=O)O; X2 = O=C(CCCCCN1C(=O)CC(*)C1=O)OCCOC(=O)CCCc1ccc(N(CCCl)CCCl)cc1
# Assays:
# [1] = test system: HCT116: human colon carcinoma; assay: cells; format: cell-based; settings: for IC50: read-out: IC50 values; for more efficient than Chl: HCT116 colon carcinoma
# Method: HCT116: human colon carcinoma (origin: ATCC #CCL-247)
# (§1) Viability assays were performed. Briefly, cells are seeded in 96-well plates and incubated with increasing concentrations of drugs (i) for 1 hour then cells are rinsed and incubated with fresh medium without drugs for 48 hours, or (ii) for 48 hours. A WST-1 test (from Roche) was performed and IC50 values (drug concentration that inhibits 50% of cell viability) were estimated from sigmoidal regressions.
# (§2) DPV15-E-Chl conjugate was compared to non-conjugated Chl and 5FUra for the inhibition of in vitro cell proliferation of human carcinoma and leukemia cells. We calculated IC50 values=drug concentration that inhibits 50% of cell viability.
# [2] = test system: HT29: human colon carcinoma; assay: cells; format: cell-based; settings: for IC50: read-out: IC50 values
# Method: HT29: human colon carcinoma, low P-gp expression (origin: ATCC #HTB-38)
# as §1, §2
# [3] = test system: K562: human chronic myelogenous leukemia; assay: Viability assay (WST-1); format: cell-based
# Method: K562: human chronic myelogenous leukemia (CML) (origin: ATCC #CCL-243).
# as §1, §2
# [4] = Stability in H2O+0.1% TFA overnight at room temperature; format: physicochemical; settings: protected from light, Chl 0.1 mg/ml, DPV15-E-Chl 0.5 mg/ml in H2O+0.1% TFA
# Method: After overnight incubation at room temperature and protected from light, both Chl (0.1 mg/ml in H2O+0.1% TFA) and DPV15-E-Chl (0.5 mg/ml in H2O+0.1% TFA) are degraded (50% degradation).
# [5] = Solubility in water / aqueous solutions
# [6] = test system: Candida albicans (ATCC 90028); assay: Lethal murine candidiasis model; format: in vivo, mice; settings: single i.v. 3 hours after inoculation
# Method: Test substances (DPV15-AmB and AmB (Fungizone)) and vehicule control were administrated i.v. with doses ranging from 0.25 mg/kg to 2.5 mg/kg AmB equivalent to test animals 3 hours after the fungal inoculation. Mortality was recorded once daily for 8 days.
# [7] = Single dose toxicity, intravenous injection; format: in vivo, mice
# Method: The single dose toxicity of the DPV15-AmB conjugate was assessed by mortality and/or body weight loss after a single dose intravenous injection. Mice were treated with DPV15-AmB 2.57, 3.68, 5.52, 7.36, 9.2, 18.4 and 36.8 mg/kg with vehicle (NaCl/H2O 9/1 v/v). These different doses correspond to 0.7, 1, 1.5, 2, 2.5, 5 and 10 mg/kg of AMB respectively. The dose of 1 mg/kg corresponds to the MTD of AmB exposed in the literature (Tabosa Do Egito et al., In-vitro and In-vivo evaluation of a new amphothericin B emulsion-based delivery system. J Antimicrob Vhemother. 1996 September; 38(3):485-97).
# [8] = HCT116 colon, 1 h incubation + 48 h
# [9] = HT29 colon, 1 h incubation + 48 h
# [10] = HT29 colon carcinoma, short exposure
smiles,measurement,setting,value
O=c1[nH]cc(F)c(=O)[nH]1 [5FUra],IC50,[1]; [8],113 ± 40 µM
same,IC50,"[1]; HCT116 colon, 48 h incubation",8.5 ± 7.9 µM
same,IC50,[2]; [9],> 1000 µM
same,IC50,"[2]; HT29 colon, 48 h incubation",725 ± 388 µM
"O=C(O)CCCc1ccc(N(CCCl)CCCl)cc1 [Chl, Chlorambucil]",IC50,"[3]; Homo sapiens, 1 h incubation + 48 h",> 500 µM
same,IC50,"[3]; Homo sapiens, 48 h incubation",250 ± 70 µM
same,IC50,"[1]; Homo sapiens, HCT-116, 48 h",200 ± 70 µM
same,IC50,"[2]; Homo sapiens, HT-29, 48 h",250 ± 70 µM
same,degradation after overnight incubation,[4],50%
same,Solubility in water / aqueous solutions,[5],not soluble
CC(C)C[C@H](NC(=O)[C@H](CCCNC(=N)N)NC(=O)[C@H](CO)NC(=O)[C@H](CCC(N)=O)NC(=O)[C@H](CCCNC(=N)N)NC(=O)[C@H](CCC(=O)O)NC(=O)[C@H](CCCNC(=N)N)NC(=O)[C@H](CCCNC(=N)N)NC(=O)[C@@H](N)CC(C)C)C(=O)N[C@@H](CCCNC(=N)N)C(=O)N[C@@H](CCCNC(=N)N)C(=O)N[C@@H](CCC(=O)O)C(=O)N[C@@H](CCCNC(=N)N)C(=O)N[C@@H](CCC(N)=O)C(=O)N[C@@H](CO)C(=O)N[C@@H](CCCNC(=N)N)C(=O)N[C@@H](CSC1CC(=O)N(CCCCCC(=O)N[C@@H]2[C@H](O)[C@H](O[C@H]3/C=C/C=C/C=C/C=C/C=C/C=C/C=C/[C@H](C)[C@@H](O)[C@@H](C)[C@H](C)OC(=O)C[C@H](O)C[C@H](O)CC[C@@H](O)[C@H](O)C[C@H](O)C[C@]4(O)C[C@H](O)[C@@H](C(=O)O)[C@H](C3)O4)O[C@H](C)[C@H]2O)C1=O)C(=O)O (stereo partly shown) [DPV15-AmB] (H-LRRERQSRLRRERQSRC(X1)-OH),survival on day 8,[6]; 0.5 mg/kg AmB equivalent,50%
same,survival on day 8,[6]; 1 mg/kg AmB equivalent,50%
same,mortality,"[7]; 18.4 mg/kg, 24 hours after the injection",1 mouse was found dead
same,loss of initial body weight,"[7]; 18.4 mg/kg, two surviving mice, 24 hours after the injection",about 12%
same,Acute lethal toxicity,"[7]; 36.8 mg/kg (10 mg/kg of AMB), single i.v.",observed
same,effect on the body weight at Day 28,"[7]; 2.57, 3.68, 5.52, 7.36 and 9.2 mg/kg, single i.v.",no effect
same,MTD at 28 day,"[7]; mouse, in vivo, iv, single i.v., conjugate dose, read-out: maximal tolerated dose",9.2 to 18.4 mg/kg
CC(C)C[C@H](NC(=O)[C@H](CCCNC(=N)N)NC(=O)[C@H](CO)NC(=O)[C@H](CCC(N)=O)NC(=O)[C@H](CCCNC(=N)N)NC(=O)[C@H](CCC(=O)O)NC(=O)[C@H](CCCNC(=N)N)NC(=O)[C@H](CCCNC(=N)N)NC(=O)[C@@H](N)CC(C)C)C(=O)N[C@@H](CCCNC(=N)N)C(=O)N[C@@H](CCCNC(=N)N)C(=O)N[C@@H](CCC(=O)O)C(=O)N[C@@H](CCCNC(=N)N)C(=O)N[C@@H](CCC(N)=O)C(=O)N[C@@H](CO)C(=O)N[C@@H](CCCNC(=N)N)C(=O)N[C@@H](CSC1CC(=O)N(CCCCCC(=O)OCCOC(=O)CCCc2ccc(N(CCCl)CCCl)cc2)C1=O)C(=O)O (stereo partly shown) [DPV15-E-Chl] (H-LRRERQSRLRRERQSRC(X2)-OH),IC50,[3]; 1 h incubation + 48 h,30 µM
same,IC50,[3]; 48 h incubation,30 µM
same,more efficient than Chl,[3]; long exposure,8 fold
same,more efficient than Chl,[3]; short exposure,≥ 16 fold
same,more efficient than Chl,[1]; long exposure,8 fold
same,more efficient than Chl,[1]; short exposure,12 fold
same,IC50,[1]; [8],43 ± 15 µM
same,IC50,"[1]; HCT116 colon, 48 h incubation",25 ± 7 µM
same,more efficient than 5FUra,[2]; [10],≥ 17 fold
same,more efficient than Chl,[2]; [10],11 fold
same,IC50,[2]; [9],60 µM
same,IC50,"[2]; HT29 colon, 48 h incubation",325 µM
same,degradation after overnight incubation,[4],50%
same,solubility,[5],≥ 10000 µg/mL
